Data taken from PubChem BioAssay (NCI).
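Five compound concentrations were applied to cells in 96-well plates for 48 hours; endpoints were derived by simple linear interpolation of the resulting dose-response curve. GI50 is the concentration that inhibits growth by half. TGI: total growth inhibition.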

Tests used:
Test in all cases: growth of human tumour cells (NCI), 48 h
[1] = system: SK-OV-3 ovarian
[2] = system: SK-MEL-28 melanoma
[3] = system: T-47D breast
[4] = system: HOP-62 NSCLC
[5] = system: HCC-2998 colon
[6] = system: HL-60(TB) leukemia
[7] = system: MDA-MB-435
[8] = system: K-562 leukemia
[9] = system: NCI-H460 lung
[10] = system: SF-268 CNS
[11] = system: M14 melanoma
[12] = system: SK-MEL-2 melanoma
[13] = system: CAKI-1 renal
[14] = system: RPMI-8226 leukemia
[15] = system: 786-0 renal
[16] = system: BT-549 breast
[17] = system: LOX IMVI melanoma
[18] = system: CCRF-CEM leukemia
[19] = system: OVCAR-5 ovarian
[20] = system: SR leukemia
[21] = system: UO-31 renal
[22] = system: NCI/ADR-RES ovarian
[23] = system: OVCAR-3 ovarian
[24] = system: PC-3 prostate
[25] = system: NCI-H226 lung
[26] = system: OVCAR-8 ovarian
[27] = system: ACHN renal
[28] = system: HT29 colon
[29] = system: OVCAR-4 ovarian
[30] = system: A549 NSCLC
[31] = system: SW-620 colon
[32] = system: TK-10 renal
[33] = system: MCF7 breast
[34] = system: SNB-19 CNS
[35] = system: HCT-15 colon
[36] = system: NCI-H522 lung
[37] = system: KM12 colon
[38] = system: HCT-116 colon
[39] = system: SNB-75 CNS
[40] = system: IGROV1 ovarian
[41] = system: SF-295 CNS
[42] = system: MDA-MB-231 breast
[43] = system: HS 578T breast
[44] = system: HOP-92 NSCLC
[45] = system: NCI-H23 lung
[46] = system: U251 CNS
[47] = system: DU-145 prostate
[48] = system: MALME-3M melanoma
[49] = system: COLO 205 colon
[50] = system: A498 renal
[51] = system: SK-MEL-5 melanoma
[52] = system: UACC-62 melanoma
[53] = system: SF-539 CNS
[54] = system: MOLT-4 leukemia
[55] = system: UACC-257 melanoma
[56] = system: RXF 393 renal
[57] = system: SN12C renal

Cc1cc(Nc2nc(-c3ccc(F)cc3)nc3ccccc23)n[nH]1
GI50 [1]: 0.855 µM | TGI [1]: 41.8 µM | GI50 [2]: 8.46 µM | TGI [2]: 21.7 µM | GI50 [3]: 1.92 µM | TGI [3]: 11.8 µM | GI50 [4]: 4.76 µM | TGI [4]: 20.3 µM | GI50 [5]: 5.24 µM | TGI [5]: 25.4 µM | GI50 [6]: 2.78 µM | TGI [6]: 34.8 µM | GI50 [7]: 1.65 µM | TGI [7]: 16.2 µM | GI50 [8]: 3.91 µM | TGI [8]: 24.1 µM | GI50 [9]: 3.17 µM | TGI [9]: 21 µM | GI50 [10]: 3.85 µM | TGI [10]: 24.5 µM | GI50 [11]: 0.748 µM | TGI [11]: 19.4 µM | GI50 [12]: 0.811 µM | TGI [12]: 16 µM | GI50 [13]: 0.453 µM | TGI [13]: 17.6 µM | GI50 [14]: 9.22 µM | TGI [14]: 39.1 µM | GI50 [15]: 1.99 µM | TGI [15]: 38.1 µM | GI50 [16]: 7.3 µM | TGI [16]: 21.6 µM | GI50 [17]: 1.05 µM | TGI [17]: 11.2 µM | GI50 [18]: 8.55 µM | TGI [18]: 39.6 µM | GI50 [19]: 10.1 µM | TGI [19]: 34.5 µM | GI50 [20]: 1.34 µM | TGI [20]: 38.4 µM | GI50 [21]: 0.574 µM | TGI [21]: 15 µM | GI50 [22]: 4.5 µM | TGI [22]: 52.2 µM | GI50 [23]: 4.9 µM | TGI [23]: 31.6 µM | GI50 [24]: 2.26 µM | TGI [24]: 21.4 µM | GI50 [25]: 3.36 µM | TGI [25]: 18 µM | GI50 [26]: 7.28 µM | TGI [26]: 36.9 µM | GI50 [27]: 0.818 µM | TGI [27]: 39.5 µM | GI50 [28]: 0.691 µM | TGI [28]: 7.5 µM | GI50 [29]: 3.2 µM | TGI [29]: 27.8 µM | GI50 [30]: 1.77 µM | TGI [30]: 18.1 µM | GI50 [31]: 2.1 µM | TGI [31]: 15.7 µM | GI50 [32]: 1.25 µM | TGI [32]: 33.4 µM | GI50 [33]: 2.79 µM | TGI [33]: 18.8 µM | GI50 [34]: 8.48 µM | TGI [34]: > 93.9 µM | GI50 [35]: 0.673 µM | TGI [35]: 33.9 µM | GI50 [36]: 3.44 µM | TGI [36]: 18.8 µM | GI50 [37]: 0.0631 µM | TGI [37]: 12 µM | GI50 [38]: 0.76 µM | TGI [38]: 15.5 µM | GI50 [39]: 0.469 µM | TGI [39]: 7.42 µM | GI50 [40]: 0.983 µM | TGI [40]: 9.17 µM | GI50 [41]: 5.36 µM | TGI [41]: 21.2 µM | GI50 [42]: 9.15 µM | TGI [42]: 26.8 µM | GI50 [43]: 0.842 µM | TGI [43]: 7.54 µM | GI50 [44]: 0.72 µM | TGI [44]: 8.64 µM | GI50 [45]: 5.74 µM | TGI [45]: 24.9 µM | GI50 [46]: 1.75 µM | TGI [46]: 21.4 µM | GI50 [47]: 6.44 µM | TGI [47]: > 48.9 µM | GI50 [48]: 16.4 µM | TGI [48]: 31.8 µM | GI50 [49]: 1.35 µM | TGI [49]: 3.35 µM | GI50 [50]: 0.371 µM | TGI [50]: 5.21 µM | GI50 [51]: 7.4 µM | TGI [51]: 20.3 µM | GI50 [52]: 3.96 µM | TGI [52]: 19.6 µM | GI50 [53]: 2.81 µM | TGI [53]: 15.4 µM | GI50 [54]: 10.1 µM | TGI [54]: 35.1 µM | GI50 [55]: 10 µM | TGI [55]: 22.7 µM | GI50 [56]: 0.757 µM | TGI [56]: 5.09 µM | GI50 [57]: 3.1 µM | TGI [57]: 25.2 µM
